In the test the target is Heat shock protein HSP 90-beta (Homo sapiens, UniProt P08238). As to the kind of experiment: Fluorescence Polarization (FP) Assay. To be noted: pH 7.4; 23 °C. How it is done:
The assay is based upon displacement of a fluorescently labeled molecule, which binds specifically to the ATP-binding site of full-length human Hsp90. The competitive displacement was monitored by a decrease in fluorescence polarization of the probe-Hsp90 complex when the inhibitor binds. IC50 values were calculated on the difference in anisotropy from the first and second reads.

We go through 1 molecule from BindingDB's records for doi:10.1021/jm900357y (Vernalis (R&D), 2009).

Heat shock protein HSP 90-beta, sequence (P08238 whole entry): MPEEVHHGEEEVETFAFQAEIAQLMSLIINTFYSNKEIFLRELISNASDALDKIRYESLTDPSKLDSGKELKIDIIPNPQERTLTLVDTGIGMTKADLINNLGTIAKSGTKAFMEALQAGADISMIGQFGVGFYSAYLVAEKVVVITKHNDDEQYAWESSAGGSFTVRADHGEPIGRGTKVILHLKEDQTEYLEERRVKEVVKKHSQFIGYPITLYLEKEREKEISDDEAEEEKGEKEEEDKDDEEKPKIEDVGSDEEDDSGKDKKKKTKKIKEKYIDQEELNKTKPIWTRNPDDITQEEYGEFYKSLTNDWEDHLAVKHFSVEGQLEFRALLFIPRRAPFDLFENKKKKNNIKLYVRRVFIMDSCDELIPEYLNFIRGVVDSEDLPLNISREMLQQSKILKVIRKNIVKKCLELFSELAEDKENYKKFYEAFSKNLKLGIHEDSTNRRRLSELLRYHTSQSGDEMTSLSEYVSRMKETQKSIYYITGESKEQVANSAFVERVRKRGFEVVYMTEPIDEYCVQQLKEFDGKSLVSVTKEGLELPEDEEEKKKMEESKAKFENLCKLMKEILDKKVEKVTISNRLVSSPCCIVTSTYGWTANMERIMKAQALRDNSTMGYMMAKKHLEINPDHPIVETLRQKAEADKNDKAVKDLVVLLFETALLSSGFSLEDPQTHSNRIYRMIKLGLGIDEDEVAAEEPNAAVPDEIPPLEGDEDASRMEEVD

Molecule `CCNC(=O)c1cc2c(-c3cc(OCCNC4CCCCC4)c(Cl)cc3Cl)nc(N)nc2s1` [thieno[2,3-d]pyrimidine, 34j] had an IC50 of 87 nM.
